Assay results taken from patent US11591341B2 (ALIGOS THERAPEUTICS, INC., priority 2019, dated 2023).

Test system: HBV
Experiment: HBV-DNA Antiviral Assay Using HepG2.117 Cells (intracellular HBV DNA by qPCR)
Format: cell-based, hepatitis B virus (genotype D)
Conditions: Hepatitis B virus, HepG2.117
In short: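 HepG2.117 cells (genotype D HBV, Tet-off) were induced by doxycycline withdrawal and treated for 3 days with 9 concentrations in 4-fold dilution, 2% DMSO final. Intracellular HBV DNA was measured by qPCR against a standard curve, with ATPlite viability read in parallel. EC50, EC90 and CC50 came from fits against the DMSO control.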

| SMILES | EC50 [µM] |
| --- | --- |
| COc1ccc(-n2c(C(=O)NCc3ccc(OC)cc3Cl)c3n(c2=O)CCN(C(=O)c2ccc(Cl)c(Cl)c2)C3)cc1 [Example 85, N-[(2-chloro-4-methoxy-phenyl)methyl]-7-(3,4-dichlorobenzoyl)-2-(4-methoxyphenyl)-3-oxo-6,8-dihydro-5H-imidazo[1,5-a]pyrazine-1-carboxamide] | 0.5 to 5 |
| COc1ccc(-n2c(-c3ncc(Cc4ccccc4)o3)c3n(c2=O)CCN(C(=O)c2ccc(Br)c(Cl)c2)C3)cc1 [Example 86] | 0.5 to 5 |
| COc1ccc(-n2c(C(=O)NCc3ccccc3)c3n(c2=O)CCN(C(=O)c2ccc(Cl)c(Cl)c2)C3)c(C)c1 [Example 87, N-benzyl-7-(3,4-dichlorobenzoyl)-2-(4-methoxy-2-methyl-phenyl)-3-oxo-6,8-dihydro-5H-imidazo[1,5-a]pyrazine-1-carboxamide] | > 5 |
| O=C(NCc1ccccc1)c1c2n(c(=O)n1-c1ccc3c(c1)OCO3)CCN(C(=O)c1ccc(Cl)c(Cl)c1)C2 [Example 88, 2-(1,3-benzodioxol-5-yl)-N-benzyl-7-(3,4-dichlorobenzoyl)-3-oxo-6,8-dihydro-5H-imidazo[1,5-a]pyrazine-1-carboxamide] | 0.5 to 5 |
| COc1ccc(-n2c(C(=O)NCc3ccc(OC)c(C)c3)c3n(c2=O)CCN(C(=O)c2ccc(Cl)c(Cl)c2)C3)cc1 [Example 89, 7-(3,4-dichlorobenzoyl)-N-[(4-methoxy-3-methyl-phenyl)methyl]-2-(4-methoxyphenyl)-3-oxo-6,8-dihydro-5H-imidazo[1,5-a]pyrazine-1-carboxamide] | 0.5 to 5 |
| COc1ccc(-n2c(C(=O)NCc3ccc(C)c(OC)c3)c3n(c2=O)CCN(C(=O)c2ccc(Cl)c(Cl)c2)C3)cc1 [Example 90, 7-(3,4-dichlorobenzoyl)-N-[(3-methoxy-4-methyl-phenyl)methyl]-2-(4-methoxyphenyl)-3-oxo-6,8-dihydro-5H-imidazo[1,5-a]pyrazine-1-carboxamide] | 0.5 to 5 |
| COc1ccc(-n2c(C(=O)NCc3ccc4c(c3)OCCO4)c3n(c2=O)CCN(C(=O)c2ccc(Cl)c(Cl)c2)C3)cc1 [Example 91, 7-(3,4-dichlorobenzoyl)-N-(2,3-dihydro-1,4-benzodioxin-6-ylmethyl)-2-(4-methoxyphenyl)-3-oxo-6,8-dihydro-5H-imidazo[1,5-a]pyrazine-1-carboxamide] | 0.5 to 5 |
| COc1ccc(-n2c(C(=O)NCc3ccc4ncccc4c3)c3n(c2=O)CCN(C(=O)c2ccc(Cl)c(Cl)c2)C3)cc1 [Example 92, 7-(3,4-dichlorobenzoyl)-2-(4-methoxyphenyl)-3-oxo-N-(6-quinolylmethyl)-6,8-dihydro-5H-imidazo[1,5-a]pyrazine-1-carboxamide] | 0.5 to 5 |
| COc1ccc(-n2c(C(=O)NCc3ccc4[nH]c(=O)[nH]c4c3)c3n(c2=O)CCN(C(=O)c2ccc(Cl)c(Cl)c2)C3)cc1 [Example 93, 7-(3,4-dichlorobenzoyl)-2-(4-methoxyphenyl)-3-oxo-N-[(2-oxo-1,3-dihydrobenzimidazol-5-yl)methyl]-6,8-dihydro-5H-imidazo[1,5-a]pyrazine-1-carboxamide] | > 5 |
| COc1cc(Cl)c(-n2c(C(=O)NCc3ccccc3)c3n(c2=O)CCN(C(=O)c2ccc(Cl)c(Cl)c2)C3)c(Cl)c1 [Example 96, N-benzyl-7-(3,4-dichlorobenzoyl)-2-(2,6-dichloro-4-methoxy-phenyl)-3-oxo-6,8-dihydro-5H-imidazo[1,5-a]pyrazine-1-carboxamide] | > 5 |
| COc1ccc(-n2c(C(=O)NCc3ccc(Cl)c(OC)c3)c3n(c2=O)CCN(C(=O)c2ccc(Br)c(Cl)c2)C3)cc1 [Example 101, 7-(4-bromo-3-chloro-benzoyl)-N-[(4-chloro-3-methoxy-phenyl)methyl]-2-(4-methoxyphenyl)-3-oxo-6,8-dihydro-5H-imidazo[1,5-a]pyrazine-1-carboxamide] | 0.5 to 5 |
| COc1ccc(-n2c(C(=O)NCc3ccc(Cl)c(OC)c3)c3n(c2=O)CCN(C(=O)c2ccc(Cl)c(Cl)c2)C3)cc1 [Example 102, N-[(4-chloro-3-methoxy-phenyl)methyl]-7-(3,4-dichlorobenzoyl)-2-(4-methoxyphenyl)-3-oxo-6,8-dihydro-5H-imidazo[1,5-a]pyrazine-1-carboxamide] | 0.5 to 5 |
| COc1ccc(-n2c(C(=O)NCc3ccc(F)c(OC)c3)c3n(c2=O)CCN(C(=O)c2ccc(Cl)c(Cl)c2)C3)cc1 [Example 103, 7-(3,4-dichlorobenzoyl)-N-[(4-fluoro-3-methoxy-phenyl)methyl]-2-(4-methoxyphenyl)-3-oxo-6,8-dihydro-5H-imidazo[1,5-a]pyrazine-1-carboxamide] | 0.5 to 5 |
| COc1ccc(-n2c(C(=O)NCc3ccc(C(N)=O)cc3)c3n(c2=O)CCN(C(=O)c2ccc(Cl)c(Cl)c2)C3)cc1 [Example 104, N-[(4-carbamoylphenyl)methyl]-7-(3,4-dichlorobenzoyl)-2-(4-methoxyphenyl)-3-oxo-6,8-dihydro-5H-imidazo[1,5-a]pyrazine-1-carboxamide] | > 5 |
| COc1ccc(-n2c(C(=O)NCC3CC3)c3n(c2=O)CCN(C(=O)c2ccc(Cl)c(Cl)c2)C3)cc1 [Example 105, N-(cyclopropylmethyl)-7-(3,4-dichlorobenzoyl)-2-(4-methoxyphenyl)-3-oxo-6,8-dihydro-5H-imidazo[1,5-a]pyrazine-1-carboxamide] | > 5 |
| COc1ccc(-n2c(C(=O)NC3(CO)CC3)c3n(c2=O)CCN(C(=O)c2ccc(Cl)c(Cl)c2)C3)cc1 [Example 106, 7-(3,4-dichlorobenzoyl)-N-[1-(hydroxymethyl)cyclopropyl]-2-(4-methoxyphenyl)-3-oxo-6,8-dihydro-5H-imidazo[1,5-a]pyrazine-1-carboxamide] | > 5 |
| COc1ccc(-n2c(C(=O)NCc3ccc4[nH]ncc4c3)c3n(c2=O)CCN(C(=O)c2ccc(Cl)c(Cl)c2)C3)cc1 [Example 107, 7-(3,4-dichlorobenzoyl)-N-(1H-indazol-5-ylmethyl)-2-(4-methoxyphenyl)-3-oxo-6,8-dihydro-5H-imidazo[1,5-a]pyrazine-1-carboxamide] | 0.5 to 5 |
| COc1ccc(-n2c(C(=O)NCc3ccccc3)c3n(c2=O)CCN(C(=O)c2ccc(Br)c(Cl)c2)C3)nc1 [Example 110, N-benzyl-7-(4-bromo-3-chloro-benzoyl)-2-(5-methoxy-2-pyridyl)-3-oxo-6,8-dihydro-5H-imidazo[1,5-a]pyrazine-1-carboxamide] | 0.5 to 5 |
| COCC1(N(C)C(=O)c2c3n(c(=O)n2-c2ccc(OC)cc2)CCN(C(=O)c2ccc(Cl)c(Cl)c2)C3)CC1 [Example 111, 7-(3,4-dichlorobenzoyl)-N-[1-(methoxymethyl)cyclopropyl]-2-(4-methoxyphenyl)-N-methyl-3-oxo-6,8-dihydro-5H-imidazo[1,5-a]pyrazine-1-carboxamide] | > 5 |
| COc1ccc(-n2c(C(=O)NCc3ccccc3OC)c3n(c2=O)CCN(C(=O)c2ccc(Br)c(Cl)c2)C3)cc1 [Example 114, 7-(4-bromo-3-chloro-benzoyl)-2-(4-methoxyphenyl)-N-[(2-methoxyphenyl)methyl]-3-oxo-6,8-dihydro-5H-imidazo[1,5-a]pyrazine-1-carboxamide] | 0.1 to 0.5 |
| COc1ccc(-n2c(C(=O)NCc3ccccc3OC)c3n(c2=O)CCN(C(=O)c2ccc(Cl)c(Cl)c2)C3)cc1 [Example 115, 7-(3,4-dichlorobenzoyl)-2-(4-methoxyphenyl)-N-[(2-methoxyphenyl)methyl]-3-oxo-6,8-dihydro-5H-imidazo[1,5-a]pyrazine-1-carboxamide] | 0.1 to 0.5 |
